The text below walks through data of ChEMBL document CHEMBL1221315, “Antiviral agents 2. Synthesis of trimeric naphthoquinone analogues of conocurvone and their antiviral evaluation against HIV” (Bioorg Med Chem, 2010).

Series [1] deals with T1, Human immunodeficiency virus type 1 integrase (Human immunodeficiency virus 1, UniProt Q7ZJM1). The series can be described thus: Inhibition of HIV1 integrase 3' strand transfer activity.
Series [2] has as its system Human immunodeficiency virus 1. As to the kind of experiment: Antiviral activity against HIV1 Rf infected in CEM cells assessed as inhibition of viral replication after 5 days. Format: functional, organism-based. The note with it: Human immunodeficiency virus 1, Rf, CCRF-CEM, 120 h.
The test system of series [3] is CCRF-CEM. As to the kind of experiment: Cytotoxicity against human CEM cells. Format: functional.
Series [4] has as its target T1, Human immunodeficiency virus type 1 integrase. The series can be described thus: Inhibition of HIV1 integrase 3' processing activity.
Series [5] in a line: Cmax in rat at 5 mg/kg, po. It is filed as ADME, organism-based. Further details: dose 5 mg/kg, route oral. The note with it: in vivo.
Series [6] can be described thus: Half life in rat at 5 mg/kg, po. The note with it: in vivo. Format: ADME, organism-based. Details: dose 5 mg/kg, route oral.
Series [7] in a line: Oral bioavailability in rat at 5 mg/kg. Format: ADME, organism-based. The note with it: in vivo.
Series [8] in a line: Cmax in rat at 2 mg/kg, iv. Conditions: in vivo.
Series [9] is described as follows: Half life in rat at 2 mg/kg, iv. Conditions: in vivo.
Series [10] can be described thus: Tmax in rat at 5 mg/kg, po and 2 mg/kg, iv. The note with it: in vivo.
Series [11] is described as follows: Plasma clearance in rat at 5 mg/kg, po and 2 mg/kg, iv.
Series [12] concerns Rattus norvegicus. The series can be described thus: Volume of distribution at steady state in rat at 5 mg/kg, po and 2 mg/kg, iv. The note with it: in vivo.

T1 sequence (Q7ZJM1 whole entry): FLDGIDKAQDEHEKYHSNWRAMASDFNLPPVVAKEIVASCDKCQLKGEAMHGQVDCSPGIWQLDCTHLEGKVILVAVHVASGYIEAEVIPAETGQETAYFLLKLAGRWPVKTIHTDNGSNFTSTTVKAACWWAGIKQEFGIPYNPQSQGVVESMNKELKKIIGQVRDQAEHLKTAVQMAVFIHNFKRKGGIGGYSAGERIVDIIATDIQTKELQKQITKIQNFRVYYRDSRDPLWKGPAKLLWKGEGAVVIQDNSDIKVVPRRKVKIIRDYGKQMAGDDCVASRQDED

Take `CC1(C)CCc2c(ccc3c2C(=O)C(O)=C(C2=C(C4=C(O)C(=O)c5c(ccc6c5CCC(C)(C)O6)C4=O)C(=O)c4c(ccc5c4CCC(C)(C)O5)C2=O)C3=O)O1`: the midpoint of inhibition in [1], the IC50, lay at 9 µM.
In the case of `CCCOc1ccc2c(c1)C(=O)C(C1=C(O)C(=O)c3c(ccc4c3C=CC(C)(C)O4)C1=O)=C(C1=C(O)C(=O)c3c(ccc4c3C=CC(C)(C)O4)C1=O)C2=O`, the EC50 in series [2] was determined as 0.009 µM. The compound further yielded a CC50 in series [3] of 1 µM. For the same compound, the IC50 in series [4] is 2.8 µM; in [1] it was 5 µM.
`O=C1C(O)=C(C2=C(C3=C(O)C(=O)c4ccccc4C3=O)C(=O)c3ccccc3C2=O)C(=O)c2ccccc21`: in series [2], the EC50 was found to be 16 µM. Besides, in series [3], half-maximal cytotoxicity (CC50) was put at 48 µM. Further, the IC50 in series [4] was 56 µM; in series [1] it was 13 µM.
On the same counts, the results for `CC1(C)C=Cc2c(ccc3c2C(=O)C(O)=C(C2=C(C4=C(O)C(=O)c5c(ccc6c5C=CC(C)(C)O6)C4=O)C(=O)c4c(ccc5c4C=CC(C)(C)O5)C2=O)C3=O)O1` are 0.39 µM, greater than 20 µM, 1.7 µM and 3 µM.
As for `CC1(C)C=Cc2c(ccc3c2C(=O)C(O)=C(C2=C(C4=C(O)C(=O)c5c(ccc6c5C=CC(C)(C)O6)C4=O)C(=O)N(Cc4ccccc4)C2=O)C3=O)O1`, the EC50 in [2] is greater than 20 µM. The IC50 stood at 4.5 µM in series [4] and 4 µM in [1].
Take `CC(C)Oc1ccc2c(c1)C(=O)C(C1=C(O)C(=O)c3c(ccc4c3C=CC(C)(C)O4)C1=O)=C(C1=C(O)C(=O)c3c(ccc4c3C=CC(C)(C)O4)C1=O)C2=O`: the EC50 in series [2] worked out at 0.24 µM. In [3], the CC50 was greater than 20 µM. The half-inhibitory concentration (IC50) is 3 µM in [4] and greater than 100 µM in series [1].
On the same counts, the results for `CC1(C)C=Cc2c(ccc3c2C(=O)C(O)=C(C2=C(C4=C(O)C(=O)c5c(ccc6c5C=CC(C)(C)O6)C4=O)C(=O)c4ccccc4C2=O)C3=O)O1` are 0.029 µM, 10 µM, 2.5 µM and 2 µM.
As to `COc1ccc2c(c1)C(=O)C(O)=C(C1=C(C3=C(O)C(=O)c4cc(OC)ccc4C3=O)C(=O)c3ccccc3C1=O)C2=O`, the EC50 in series [2] was greater than 20 µM. Besides, the IC50 worked out at 22.5 µM in series [4] and 10 µM in series [1].
With `CC1(C)C=Cc2c(ccc3c2C(=O)C(O)=C(C2=C(C4=C(O)C(=O)c5c(ccc6c5C=CC(C)(C)O6)C4=O)C(=O)c4c(ccc5c4CCC(C)(C)O5)C2=O)C3=O)O1`, in series [2], the EC50 amounted to 0.47 µM. The CC50 in [3] was greater than 20 µM. In addition, the IC50 in series [4] was found to be 1.8 µM; in series [1], 6 µM. For the same compound, the results for the Cmax in series [5] and in series [8] were 3200 ng/mL and 50200 ng/mL, respectively. In addition, the half-life was 21.7 h in series [6] and 45 h in series [9]. The bioavailability in series [7] was 2.6%. The Tmax in series [10] amounted to 7.5 h. In series [11], the clearance was 0.00733 mL/min. Besides, the Vdss in series [12] was found to be 27.7 mL.
`COc1cccc2c1C(=O)C(C1=C(C3=C(O)C(=O)c4cccc(OC)c4C3=O)C(=O)c3ccccc3C1=O)=C(O)C2=O`: the EC50 in series [2] is greater than 20 µM. Half-maximal inhibition in [1] (IC50) was put at 13 µM.
On to `COc1cc2c(cc1OC)C(=O)C(C1=C(C3=C(O)C(=O)c4cc(OC)c(OC)cc4C3=O)C(=O)c3ccccc3C1=O)=C(O)C2=O`, for which, in series [2], the EC50 was greater than 20 µM. The IC50 in series [4] was found to be 62 µM; in [1] it was 12 µM.
For the compound `COc1ccc2c(c1)C(=O)C(C1=C(O)C(=O)c3c(ccc4c3C=CC(C)(C)O4)C1=O)=C(C1=C(O)C(=O)c3c(ccc4c3C=CC(C)(C)O4)C1=O)C2=O`, in series [2], the concentration giving a half-maximal response (EC50) is 0.027 µM. The compound also yielded a CC50 in [3] of 10 µM. For the same compound, the IC50 came to 2.3 µM in series [4] and 2.5 µM in series [1].
Consider `COc1cc2c(cc1OC)C(=O)C(C1=C(C3=C(O)C(=O)c4cc(OC)c(OC)cc4C3=O)C(=O)c3cc(OC)c(OC)cc3C1=O)=C(O)C2=O`, for which the values for the IC50 in series [4] and in series [1] were greater than 150 µM and 10 µM, respectively.

A word on the IC50: it is the point on the concentration scale where inhibition reaches its midpoint. Read a low IC50 as greater potency in that assay. What is called EC50 is the concentration that produces a half-maximal response. Usually CC50 stands for the concentration at which the toxic effect on the cells reaches its halfway point. High values mean better tolerance by the cells, low ones harm at low concentration. The term Cmax denotes the peak of the concentration-time curve. A word on the half-life: it is how long it takes for the measured level to halve. A low value points to rapid decline. What is called bioavailability is the share of a dose that reaches the circulation, judged against a reference dose that is usually intravenous. A high value points to much systemic uptake. Broadly, the Tmax is the time from dosing to the highest level.
